Experimental data taken from patent publication US6448256B1, “Antibiotic prodrugs” (University of Massachusetts, priority 1999, dated 2002).
Converted amounts (≈) assume the structure as drawn. Read-outs that look alike come from different tables or passages of the source.

Columns and labels:
E. coli = assay: MIC against E. coli (Gram-negative control); assay type: cell-based; details: Escherichia coli; Table 5, Gram-negative control
Method: (§1) To further investigate the antibacterial and/or DNA pol III inhibitory activity of various drug compounds, various ester-containing moieties N-linked to the EMAU core were produced as described in Example 1. These prodrugs were assayed for inhibition of B. subtilis DNA pol III and antibiotic activity against a number of bacteria.
(§2) The minimal inhibitory concentrations (MICs) of the four N3-substituted agents and EMAU were determined for B. subtilis (BS), methicillin-sensitive and resistant S. aureus (SA & MRSA), vancomycin-sensitive and resistant E. fecalis (EF& VREF), vancomycin-resistant E. fecium (VREF*), and E. coli (EC) as a Gram-negative control.

E. fecalis = assay: MIC against E. fecalis; assay type: cell-based; details: Table 5, vancomycin-sensitive; read-out: MIC EF
Method: as §1, §2

B. subtilis [1] = assay: MIC against B. subtilis; assay type: cell-based; details: Bacillus subtilis, Table 5; read-out: MIC BS
Method: as §1, §2

EF pol III = EF pol III (Enterococcus faecalis, UniProt Q831W8); assay: Inhibition of E. fecalis pol III (Ki); assay type: biochemical
Method: (§3) The competitive inhibitor constants (Ki) of selected EMAU compounds were determined with three different pol Ills: the pol III enzyme from Bacillus subtilis (BS pol III), and the pol III enzymes of the clinically relevant pathogens, Enterococcus fecalis (EF pol III) and Staphylococcus aureus (SA pol 111).

S. aureus = assay: MIC against S. aureus (methicillin-sensitive); assay type: cell-based; details: Staphylococcus aureus, Table 5, methicillin-sensitive; read-out: MIC SA
Method: as §1, §2

[2] = system: vancomycin-resistant E. fecalis; assay: MIC against vancomycin-resistant E. fecalis (VREF); assay type: cell-based; details: Table 5, vancomycin-resistant E. fecalis
Method: as §2

MRSA2 = assay: MIC against methicillin-resistant S. aureus strain MRSA2; assay type: cell-based; details: Staphylococcus aureus; Table 5
Method: as §1, §2

[3] = system: vancomycin-resistant E. fecium; assay: MIC against vancomycin-resistant E. fecium (VRE, VREF*); assay type: cell-based; details: Enterococcus; Table 5, vancomycin-resistant E. fecium
Method: as §1, §2

B. subtilis DNA pol III = B. subtilis DNA pol III (Bacillus subtilis, UniProt P13267); assay: Inhibition of B. subtilis DNA pol III (Ki); assay type: biochemical; details: Table 4, average of 3 determinations, standard deviation 13.4%; read-out: KI Bs pol III
Chain of B. subtilis DNA pol III (P13267 whole entry): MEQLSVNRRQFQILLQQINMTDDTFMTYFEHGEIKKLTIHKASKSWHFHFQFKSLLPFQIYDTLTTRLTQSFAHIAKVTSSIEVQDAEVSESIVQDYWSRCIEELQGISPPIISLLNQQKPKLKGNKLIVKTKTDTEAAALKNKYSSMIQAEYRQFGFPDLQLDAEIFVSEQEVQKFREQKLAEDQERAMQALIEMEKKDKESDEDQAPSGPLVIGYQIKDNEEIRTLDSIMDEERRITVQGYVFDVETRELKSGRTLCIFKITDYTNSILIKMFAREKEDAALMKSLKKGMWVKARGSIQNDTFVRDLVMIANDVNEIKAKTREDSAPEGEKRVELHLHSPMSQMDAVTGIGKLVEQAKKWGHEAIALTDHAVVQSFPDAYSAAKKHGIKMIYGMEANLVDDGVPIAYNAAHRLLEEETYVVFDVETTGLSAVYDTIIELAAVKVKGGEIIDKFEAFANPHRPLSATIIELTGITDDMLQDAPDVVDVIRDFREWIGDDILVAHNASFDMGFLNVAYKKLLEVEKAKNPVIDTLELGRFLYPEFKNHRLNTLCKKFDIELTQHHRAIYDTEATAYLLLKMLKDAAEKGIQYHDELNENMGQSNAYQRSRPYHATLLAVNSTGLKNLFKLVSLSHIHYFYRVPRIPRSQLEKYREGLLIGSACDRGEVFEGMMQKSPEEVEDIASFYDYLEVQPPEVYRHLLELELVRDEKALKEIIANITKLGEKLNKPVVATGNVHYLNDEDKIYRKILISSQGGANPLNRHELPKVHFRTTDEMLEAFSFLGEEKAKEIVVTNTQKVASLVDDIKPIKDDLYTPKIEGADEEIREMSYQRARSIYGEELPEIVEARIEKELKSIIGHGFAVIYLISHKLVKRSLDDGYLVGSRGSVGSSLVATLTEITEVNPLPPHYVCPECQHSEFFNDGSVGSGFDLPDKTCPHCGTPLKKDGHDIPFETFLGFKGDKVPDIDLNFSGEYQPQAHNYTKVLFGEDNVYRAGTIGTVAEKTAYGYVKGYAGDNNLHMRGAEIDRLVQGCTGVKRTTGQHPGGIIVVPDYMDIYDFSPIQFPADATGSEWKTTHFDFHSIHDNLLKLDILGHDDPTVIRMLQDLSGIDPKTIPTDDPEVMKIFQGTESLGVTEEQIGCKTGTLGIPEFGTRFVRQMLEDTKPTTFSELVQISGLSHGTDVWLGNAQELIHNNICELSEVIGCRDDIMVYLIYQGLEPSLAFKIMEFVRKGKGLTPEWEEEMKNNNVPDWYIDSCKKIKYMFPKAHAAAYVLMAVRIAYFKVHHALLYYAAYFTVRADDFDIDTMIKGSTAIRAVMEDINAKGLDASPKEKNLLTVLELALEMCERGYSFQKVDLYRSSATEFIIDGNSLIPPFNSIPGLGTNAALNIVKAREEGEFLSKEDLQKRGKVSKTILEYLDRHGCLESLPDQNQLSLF
Method: as §1, §3

SA pol III = molecular target: T1, SA pol III (Staphylococcus aureus, UniProt P0C1P9); assay: Inhibition of S. aureus pol III (Ki); assay type: biochemical; details: Table 4, average of 3 determinations, standard deviation 13.4%
T1 sequence (P0C1P9 1-1435): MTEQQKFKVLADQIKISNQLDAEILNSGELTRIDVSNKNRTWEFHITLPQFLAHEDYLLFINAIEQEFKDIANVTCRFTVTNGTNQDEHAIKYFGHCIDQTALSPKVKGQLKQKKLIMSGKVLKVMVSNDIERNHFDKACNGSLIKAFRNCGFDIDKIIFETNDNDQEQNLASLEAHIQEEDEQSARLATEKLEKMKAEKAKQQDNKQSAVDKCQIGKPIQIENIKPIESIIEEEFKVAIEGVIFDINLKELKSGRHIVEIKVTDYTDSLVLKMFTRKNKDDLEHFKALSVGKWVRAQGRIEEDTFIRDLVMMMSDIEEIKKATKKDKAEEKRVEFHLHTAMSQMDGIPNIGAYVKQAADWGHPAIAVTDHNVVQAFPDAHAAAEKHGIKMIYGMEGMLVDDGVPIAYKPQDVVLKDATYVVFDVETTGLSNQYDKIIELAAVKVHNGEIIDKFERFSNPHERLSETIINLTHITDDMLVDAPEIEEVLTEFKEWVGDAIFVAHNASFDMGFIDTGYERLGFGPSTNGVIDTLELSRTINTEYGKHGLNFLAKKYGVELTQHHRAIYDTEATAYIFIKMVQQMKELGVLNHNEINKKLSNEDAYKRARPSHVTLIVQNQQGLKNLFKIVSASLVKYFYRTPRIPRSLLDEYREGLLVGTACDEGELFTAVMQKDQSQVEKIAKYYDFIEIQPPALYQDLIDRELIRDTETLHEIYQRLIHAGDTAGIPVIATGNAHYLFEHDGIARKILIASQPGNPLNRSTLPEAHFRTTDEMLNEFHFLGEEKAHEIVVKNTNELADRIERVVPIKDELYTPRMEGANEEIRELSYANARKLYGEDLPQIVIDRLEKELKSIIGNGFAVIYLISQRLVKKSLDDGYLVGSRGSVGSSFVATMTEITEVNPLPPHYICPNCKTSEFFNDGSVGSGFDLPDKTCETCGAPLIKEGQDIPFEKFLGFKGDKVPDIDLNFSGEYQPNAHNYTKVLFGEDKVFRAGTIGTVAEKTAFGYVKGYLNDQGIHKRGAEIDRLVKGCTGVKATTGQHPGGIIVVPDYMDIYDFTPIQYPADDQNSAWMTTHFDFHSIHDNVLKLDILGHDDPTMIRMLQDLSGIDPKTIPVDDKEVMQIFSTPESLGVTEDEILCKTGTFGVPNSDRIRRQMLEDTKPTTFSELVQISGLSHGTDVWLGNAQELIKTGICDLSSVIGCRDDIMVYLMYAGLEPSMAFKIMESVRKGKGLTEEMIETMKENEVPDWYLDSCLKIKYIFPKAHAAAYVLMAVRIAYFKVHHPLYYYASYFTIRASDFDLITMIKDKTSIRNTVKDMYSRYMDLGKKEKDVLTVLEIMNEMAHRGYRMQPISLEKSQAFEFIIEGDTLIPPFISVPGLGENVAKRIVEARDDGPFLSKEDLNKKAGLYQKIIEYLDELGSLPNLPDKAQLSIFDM
Method: as §3

MRSA = assay: MIC against methicillin-resistant S. aureus strain MRSA / MRSA1; assay type: cell-based; details: Staphylococcus aureus, MRSA; Table 5
Method: as §1, §2

B. subtilis [4] = assay: Antibacterial activity of crude compounds made by small scale synthesis; assay type: cell-based; details: Bacillus subtilis; crude reaction mixtures dissolved in DMSO, assayed directly
Method: 6-Anilinouracils were synthesized using small scale synthetic methods. One milligram quantities of 3-(3-methoxypropyl)-6-chlorouracil were heated with 42 substituted anilines in micro-test tubes at 130° C. for 20 minutes. The reaction mixtures were dissolved in DMSO and assayed directly for antibacterial activity.

[5] = system: S. aureus (methicillin-sensitive Smith strain); assay: ip/ip mouse protection against lethal S. aureus infection; assay type: in vivo, mice
Method: Step 1: Screening—Each candidate prodrug is screened for activity in an ip/ip S. aureus protection model. Candidates that display efficacy equivalent to that of HB-EMAU and HB-IMAU are selected for advanced pharmacokinetic analysis and application in the more relevant mouse thigh model of infection.
The efficacy of the propyl derivatives was tested against murine staphylococcal infection in vivo. A simple “ip/ip” system was used, in which 20 gram mice (10 each) were injected ip (intraperitoneally) with a lethal dose (2.3×10^7 CFU) of the methicillin-sensitive Smith strain of S. aureus. The mice were then immediately injected ip with the antibiotic agent as a 1:9 mixture of DMSO:peanut oil. Vancomycin was used as the positive control drug.
Both hydroxybutyl compounds were tested at 10 mg/kg in the mouse protection experiment against lethal S. aureus infection described in Example 4 above.

[6] = Table 4, average of 3 determinations, standard deviation 13.4%, read-out: KI EF pol III

**Q.** What does the source list for `CCc1cc(Nc2cc(=O)[nH]c(=O)[nH]2)ccc1C` [EMAU, 6-(3-ethyl-4-methylanilino)uracil, reference compound]?
**A.** MIC (E. coli): > 35 µg/mL; MIC (E. fecalis): 25 µg/mL (≈ 102 µM); MIC (B. subtilis [1]): 12 µg/mL (≈ 48.9 µM); Ki (EF pol III): 260 nM; MIC (S. aureus): 25 µg/mL (≈ 102 µM); MIC [2]: 25 µg/mL (≈ 102 µM); MIC (MRSA2): 25 µg/mL (≈ 102 µM); MIC [3]: 25 µg/mL (≈ 102 µM); Ki (B. subtilis DNA pol III): 250 nM; Ki (SA pol III): 810 nM; MIC (MRSA): 25 µg/mL (≈ 102 µM)

**Q.** Which MIC (E. coli) does the source give for `CCc1cc(Nc2cc(=O)n(CCCOC)c(=O)[nH]2)ccc1C` [MP-EMAU] here?
**A.** > 35 µg/mL

**Q.** And the MIC (E. fecalis)?
**A.** 1.9 µg/mL (≈ 5.99 µM)

**Q.** And the MIC (B. subtilis [1])?
**A.** 0.5 µg/mL (≈ 1.58 µM)

**Q.** What about the Ki (EF pol III; [6]) of the same compound?
**A.** 190 nM

**Q.** And the MIC (S. aureus)?
**A.** 3.9 µg/mL (≈ 12.3 µM)

**Q.** And the MIC [2]?
**A.** 1.9 µg/mL (≈ 5.99 µM)

**Q.** And the MIC (MRSA2)?
**A.** 3.9 µg/mL (≈ 12.3 µM)

**Q.** What about the MIC [3] of the same compound?
**A.** 3.9 µg/mL (≈ 12.3 µM)

**Q.** And the Ki (B. subtilis DNA pol III)?
**A.** 240 nM

**Q.** What about the MIC (B. subtilis [4]) of the same compound?
**A.** 3.13 µg/mL (≈ 9.86 µM)

**Q.** And the Ki (SA pol III)?
**A.** 820 nM

**Q.** What about the animals protected ([5]; 10 mg/kg ip) of the same compound?
**A.** roughly 50%

**Q.** And the animals protected ([5]; lower dose (5 mg/kg) ip)?
**A.** none

**Q.** What about the MIC (MRSA) of the same compound?
**A.** 3.9 µg/mL (≈ 12.3 µM)

**Q.** What does the source list for `CCc1cc(Nc2cc(=O)n(CCOC)c(=O)[nH]2)ccc1C` [ME-EMAU]?
**A.** MIC (E. coli): > 35 µg/mL; MIC (E. fecalis): 6.2 µg/mL (≈ 20.4 µM); MIC (B. subtilis [1]): 1 µg/mL (≈ 3.3 µM); Ki (EF pol III; [6]): 160 nM; MIC (S. aureus): 10.3 µg/mL (≈ 34 µM); MIC [2]: 6.2 µg/mL (≈ 20.4 µM); MIC (MRSA2): 12.4 µg/mL (≈ 40.9 µM); MIC [3]: 8.3 µg/mL (≈ 27.4 µM); Ki (B. subtilis DNA pol III): 190 nM; Ki (SA pol III): 820 nM; MIC (MRSA): 8.3 µg/mL (≈ 27.4 µM)
